Experimental findings from the Kinase Knowledgebase extract (Sharma et al. 2016) are described below.

pIC50: −log10 of the molar value.

For this assay, the target named is MAPK14 (human) (UniProt Q16539). Description: Inhibition of MAPK14 by Human Whole Blood Assay. As to conditions: blood cells.
MAPK14 (human), sequence (Q16539 whole entry, looked up): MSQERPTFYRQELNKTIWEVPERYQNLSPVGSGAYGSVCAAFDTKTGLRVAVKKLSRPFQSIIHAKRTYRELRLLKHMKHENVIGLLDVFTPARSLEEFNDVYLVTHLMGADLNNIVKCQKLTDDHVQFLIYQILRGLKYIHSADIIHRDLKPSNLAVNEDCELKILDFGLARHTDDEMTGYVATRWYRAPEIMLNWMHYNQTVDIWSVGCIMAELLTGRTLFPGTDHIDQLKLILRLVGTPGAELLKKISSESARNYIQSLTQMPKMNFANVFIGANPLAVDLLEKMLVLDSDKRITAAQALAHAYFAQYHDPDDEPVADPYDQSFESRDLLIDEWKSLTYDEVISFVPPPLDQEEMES

One may read the pIC50 as the IC50 on a negative log10 scale, so that one unit is a factor of ten. `C[C@H](Nc1cc(N(Cc2ccc(F)cc2)C(=O)c2ccccc2)ccn1)c1ccccc1` showed a negative logarithm of the IC50 (pIC50) of at least 6.00.
To `CNc1nccc(N(CC2CCNCC2)C(=O)c2ccc3ccccc3c2)n1` belongs over 6.00; to `CCN(C(=O)c1cccc(C2CC2)c1)c1ccnc(N[C@@H](C)c2ccccc2)n1`, over 6.00.
To `O=C(c1ccc2ccccc2c1)N(Cc1ccc(F)cc1)c1ccnc(NCc2ccccc2)c1` belongs at least 6.00.
To `COCCCN(C(=O)c1ccc2ccccc2c1)c1ccnc(N[C@@H](C)c2ccccc2)n1` belongs over 6.00; to `O=C(c1ccc2c(c1)CCO2)N(CC1CCNCC1)c1ccnc(NC2CC2)n1`, over 6.00.
In the case of `CCN(C(=O)c1cc(C)ccc1F)c1ccnc(N[C@@H](C)c2ccccc2)n1`, the pIC50 was over 6.00.
To `NCCCCN(C(=O)c1ccc2c(c1)CCO2)c1ccnc(NC2CCC(O)CC2)n1` (stereo not given) belongs over 6.00; to `C[C@H](Nc1nccc(N(CC2CC2)C(=O)c2ccc3ccccc3c2)n1)c1ccccc1`, over 6.00; to `C[C@H](Nc1cc(N(Cc2ccc(F)cc2)S(=O)(=O)c2ccc3ccccc3c2)ccn1)c1ccccc1`, at least 6.00.
